Laboratory results published in the supplement of paper PMC10307832.

Compound: O=c1ncccn1[C@@H]1O[C@H](CO)[C@@H](O)[C@H]1O [Zebularine] + C[C@@H](Oc1cc(-c2cnn(C3CCNCC3)c2)cnc1N)c1c(Cl)ccc(F)c1Cl [Crizotinib] (partner 1 µM)
Experiment: relative viability (nuclei count vs DMSO), 5 days (fraction); higher = more cells survive
Conditions: first compound 1 µM
How it was run: (§1)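 Dosing by pin tool came one day after lung cancer cell lines were seeded in 1536-well plates, using either one drug or a fixed anchor-drug dose plus five library-drug doses (not always all listed) in √10 steps. After 5 days, nuclei were counted on 4× images. Relative viability is treated-well nuclei count divided by vehicle-well nuclei count, and values are medians of duplicate plates.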

| Cell Line | relative viability |
| --- | --- |
| PC-14 | 1.01 |
| EKVX | 1.11 |
| LC-2-ad | 0.498 |
| NCI-H1975 | 1.02 |
| RERF-LC-KJ | 1.01 |
| NCI-H650 | 0.598 |
| PC-3 [JPC-3] | 1.09 |

Same assay, conditions: first compound 3.162 µM

| Cell Line | relative viability |
| --- | --- |
| PC-14 | 0.81 |
| EKVX | 0.87 |
| LC-2-ad | 0.434 |
| NCI-H1975 | 1.07 |
| RERF-LC-KJ | 0.826 |
| NCI-H650 | 0.652 |
| PC-3 [JPC-3] | 0.943 |

Same assay, conditions: first compound 10 µM

| Cell Line | relative viability |
| --- | --- |
| PC-14 | 0.271 |
| LC-2-ad | 0.363 |
| NCI-H1975 | 0.513 |
| NCI-H650 | 0.587 |
| PC-3 [JPC-3] | 0.64 |

Same assay, conditions: first compound 31.62 µM

| Cell Line | relative viability |
| --- | --- |
| PC-14 | 0.141 |
| EKVX | 0.896 |
| LC-2-ad | 0.377 |
| NCI-H1975 | 0.317 |
| RERF-LC-KJ | 0.885 |
| NCI-H650 | 0.43 |
| PC-3 [JPC-3] | 0.699 |

Same assay, conditions: first compound 100 µM

| Cell Line | relative viability |
| --- | --- |
| PC-14 | 0.122 |
| EKVX | 1.11 |
| LC-2-ad | 0.249 |
| NCI-H1975 | 0.265 |
| RERF-LC-KJ | 0.977 |
| NCI-H650 | 0.334 |
| PC-3 [JPC-3] | 0.476 |

Compound: CC(C)CCN1c2nc(Nc3cc(F)c(O)c(F)c3)ncc2N(C)C(=O)C1C [BI-D1870] + CC(C)C[C@H](NC(=O)[C@H](Cc1ccccc1)NC(=O)c1cnccn1)B(O)O [Bortezomib] (partner 0.002 µM)
Experiment: as above
Conditions: first compound 0.04 µM
How it was run: as §1

| Cell Line | relative viability |
| --- | --- |
| PC-14 | 0.95 |
| EKVX | 1.14 |
| LC-2-ad | 1.11 |
| NCI-H1975 | 0.487 |
| RERF-LC-KJ | 1.12 |
| NCI-H650 | 1.11 |
| PC-3 [JPC-3] | 0.74 |

Same assay, conditions: first compound 0.1265 µM

| Cell Line | relative viability |
| --- | --- |
| PC-14 | 0.909 |
| EKVX | 1.1 |
| LC-2-ad | 0.921 |
| NCI-H1975 | 0.44 |
| RERF-LC-KJ | 0.997 |
| NCI-H650 | 0.784 |
| PC-3 [JPC-3] | 0.859 |

Same assay, conditions: first compound 0.4 µM

| Cell Line | relative viability |
| --- | --- |
| PC-14 | 0.809 |
| EKVX | 0.938 |
| LC-2-ad | 0.999 |
| NCI-H1975 | 0.386 |
| RERF-LC-KJ | 1.13 |
| NCI-H650 | 0.899 |
| PC-3 [JPC-3] | 0.825 |

Same assay, conditions: first compound 1.265 µM

| Cell Line | relative viability |
| --- | --- |
| PC-14 | 0.963 |
| EKVX | 1.15 |
| LC-2-ad | 1.04 |
| NCI-H1975 | 0.339 |
| RERF-LC-KJ | 1.25 |
| NCI-H650 | 0.96 |
| PC-3 [JPC-3] | 0.889 |

Same assay, conditions: first compound 4 µM

| Cell Line | relative viability |
| --- | --- |
| PC-14 | 0.559 |
| EKVX | 1.05 |
| LC-2-ad | 0.953 |
| NCI-H1975 | 0.175 |
| RERF-LC-KJ | 0.946 |
| NCI-H650 | 0.611 |
| PC-3 [JPC-3] | 0.829 |

Compound: CC(C)CCN1c2nc(Nc3cc(F)c(O)c(F)c3)ncc2N(C)C(=O)C1C [BI-D1870] + Nc1ncn([C@H]2C[C@H](O)[C@@H](CO)O2)c(=O)n1 [Decitabine] (partner 2 µM)
Experiment: as above
Conditions: first compound 0.04 µM
How it was run: as §1

| Cell Line | relative viability |
| --- | --- |
| PC-14 | 0.203 |
| EKVX | 0.328 |
| LC-2-ad | 0.834 |
| NCI-H1975 | 0.436 |
| RERF-LC-KJ | 0.661 |
| NCI-H650 | 0.336 |
| PC-3 [JPC-3] | 0.867 |

Same assay, conditions: first compound 0.1265 µM

| Cell Line | relative viability |
| --- | --- |
| PC-14 | 0.148 |
| EKVX | 0.309 |
| LC-2-ad | 0.72 |
| NCI-H1975 | 0.348 |
| RERF-LC-KJ | 0.671 |
| NCI-H650 | 0.339 |
| PC-3 [JPC-3] | 0.867 |

Same assay, conditions: first compound 0.4 µM

| Cell Line | relative viability |
| --- | --- |
| PC-14 | 0.278 |
| EKVX | 0.374 |
| LC-2-ad | 0.842 |
| NCI-H1975 | 0.411 |
| RERF-LC-KJ | 0.675 |
| NCI-H650 | 0.331 |
| PC-3 [JPC-3] | 0.849 |

Same assay, conditions: first compound 1.265 µM

| Cell Line | relative viability |
| --- | --- |
| PC-14 | 0.198 |
| EKVX | 0.436 |
| LC-2-ad | 0.893 |
| NCI-H1975 | 0.361 |
| RERF-LC-KJ | 0.745 |
| NCI-H650 | 0.314 |
| PC-3 [JPC-3] | 0.944 |

Same assay, conditions: first compound 4 µM

| Cell Line | relative viability |
| --- | --- |
| PC-14 | 0.223 |
| EKVX | 0.39 |
| LC-2-ad | 0.791 |
| NCI-H1975 | 0.368 |
| RERF-LC-KJ | 0.519 |
| NCI-H650 | 0.286 |
| PC-3 [JPC-3] | 0.728 |

Compound: CC(C)CCN1c2nc(Nc3cc(F)c(O)c(F)c3)ncc2N(C)C(=O)C1C [BI-D1870] + CC(=O)Nc1cccc(-n2c(=O)n(C3CC3)c(=O)c3c(Nc4ccc(I)cc4F)n(C)c(=O)c(C)c32)c1 [Trametinib] (partner 0.02 µM)
Experiment: as above
Conditions: first compound 0.04 µM
How it was run: as §1

| Cell Line | relative viability |
| --- | --- |
| PC-14 | 0.864 |
| EKVX | 0.336 |
| LC-2-ad | 0.897 |
| NCI-H1975 | 0.373 |
| RERF-LC-KJ | 0.901 |
| NCI-H650 | 0.995 |
| PC-3 [JPC-3] | 0.751 |

Same assay, conditions: first compound 0.1265 µM

| Cell Line | relative viability |
| --- | --- |
| PC-14 | 0.534 |
| EKVX | 0.281 |
| LC-2-ad | 0.848 |
| NCI-H1975 | 0.285 |
| RERF-LC-KJ | 0.752 |
| NCI-H650 | 0.82 |
| PC-3 [JPC-3] | 0.701 |

Same assay, conditions: first compound 0.4 µM

| Cell Line | relative viability |
| --- | --- |
| PC-14 | 0.788 |
| EKVX | 0.339 |
| LC-2-ad | 0.957 |
| NCI-H1975 | 0.339 |
| RERF-LC-KJ | 0.863 |
| NCI-H650 | 0.862 |
| PC-3 [JPC-3] | 0.632 |

Same assay, conditions: first compound 1.265 µM

| Cell Line | relative viability |
| --- | --- |
| PC-14 | 0.498 |
| EKVX | 0.401 |
| LC-2-ad | 0.956 |
| NCI-H1975 | 0.365 |
| RERF-LC-KJ | 0.837 |
| NCI-H650 | 0.901 |
| PC-3 [JPC-3] | 0.762 |

Same assay, conditions: first compound 4 µM

| Cell Line | relative viability |
| --- | --- |
| PC-14 | 0.243 |
| EKVX | 0.445 |
| LC-2-ad | 0.882 |
| NCI-H1975 | 0.289 |
| RERF-LC-KJ | 0.693 |
| NCI-H650 | 0.904 |
| PC-3 [JPC-3] | 0.576 |
